According to patent US6821761B2, “Sphingolipid ceramide N-deacylase, methods for producing sphingolipids and sphingolipid derivatives, and sphingolipid ceramide N-deacylase gene” (Takara Bio, Inc., priority 1994, dated 2004):

Experiments:
[1] = test system: Limulus polyphemus ceramidase; assay: Ceramidase activity of Limulus polyphemus serum / purified ceramidase on ceramide substrates; format: biochemical
Procedure: A 10 μl of serum obtained by centrifugation of Limulus polyphemus blood was allowed to undergo 18 hours of reaction at 37° C. with 10 μl of 50 mM acetate buffer (pH 5.0) containing 1 nmol of NBD ceramide prepared in Example 21 and 0.5% Triton X-100. After completion of the reaction, the reaction solution was developed on thin layer chromatography (developing solvent: chloroform/methanol/25% liquid ammonia=90/20/0.5 by volume) and detected under an ultraviolet ray lamp.
In order to confirm that the ceramidase activity found in the Limulus polyphemus serum is really a ceramidase-derived activity, the ceramidase was purified to find that it was an acidic ceramidase having an optimum pH of 4.5 and a molecular weight of about 205 kDa when measured by a gel filtration method.

[2] = test system: ceramidase in B16 cells; assay: Measurement of ceramidase activity in B16 cells with labeled ceramide substrates; format: biochemical; conditions: B16 cell suspension, 50 μg protein, 0.5% Triton X-100, 37° C. 3 or 6 hours; FIG. 16
Procedure: Measurement of ceramidase activity in B16 cells using radioisotope labeled ^14C ceramide (C12−^14C-Cer) and fluorescent sphingolipid derivative NBD ceramide (C12-NBD-Cer) as the substrate:
A cell suspension was prepared by suspending 6×10^6 of B16 cells in 200 μl of 10 mM phosphate buffer. The amount of the protein was determined using MicroBCA™ protein assay reagent (manufactured by Pierce).
Under acidic condition in 10 μl of 50 MM acetate buffer (pH 4.0) containing 10 μl of the cell suspension (diluted to a protein content of 50 μg), 200 pmol of C12-NBD-Cer obtained in Example 21 or 100 pmol of C12−^14C-Cer obtained using lauric acid instead of palmitic acid used in Example 20, as the substrate, and 0.5% Triton X-100. […]
Each of the samples was developed on thin layer chromatography (developing solvent, chloroform/methanol/25% liquid ammonia =90/20/0.5 by volume), and the released ^14C fatty acid was determined using BAS 1000 Imaging Analyzer (manufactured by Fuji Photo Film) to calculate the reaction ratio. Also, the released NBD fatty acid was determined using Chromatoscanner CS 9000 (manufactured by Shimadzu Corporation), and the reaction ratio was calculated.

[3] = test system: crude SCDase; assay: Substrate specificity of crude SCDase (culture supernatant) from Shewanella alga NS-589; format: biochemical; conditions: SCDase produced by Shewanella alga NS-589
Description: Acting on acidic glycolipids (GM1, GM2, GD1a, GD1b, sialosyl paragloboside, etc.), neutral glycolipids (lactosyl ceramide, Gb4, Gb5, etc.), sulfated glycolipids (sulfatide, etc.) and sphingomyelin which is a sphingophospholipid, thus forming the corresponding lysosphingolipid and fatty acid in each case.
The substrate specificity was examined as follows. Shewanella alga NS-589 was inoculated into a synthetic medium (dipotassium hydrogenphosphate 0.05%, ammonium chloride 0.05%, sphingomyelin 0.1%, sodium taurodeoxycholate 0.1%, sodium chloride 2%, 2,6-O-dimethyl-β-cyclodextrin 0.1%; pH 7.4). Two days after shaking cultivation at 30° C., the strain was removed to obtain a supernatant by centrifuge. A 50 mM acetate buffer ([…]; pH 6.0) containing 3 μl of the supernatant and 1.6% Triton X-100 was allowed to react with 5 μl of 1.2 mM of each of sphingolipids shown in Table 2 at 37° C. for 16 hours, and then the resulting mixture was analyzed with a thin layer chromatography.
The digestion ratios of various substrates by a crude SCDase obtained from Shewanella alga NS-589.

[4] = test system: SCDase derived from the genus Pseudomonas; assay: Fatty acid exchange reaction on various acceptors by SCDase; format: biochemical; conditions: 1 nmol [1-14C] stearic acid, 1 nmol sphingolipid, 30 μU SCDase, acetate buffer pH 6.0, 0.8% Triton X-100, overnight 37° C., galactosyl ceramide = 100
Procedure: A 10 μl portion of 50 mM acetate buffer (pH 6.0) containing 1 nmol [1−^14C] stearic acid, 1 nmol sphingolipid, 0.8% Triton X-100 and 30 μU SCDase derived from the genus Pseudomonas was allowed to react overnight at 37° C.
The thus obtained reaction solution was developed on thin layer chromatography and exposed to an imaging plate to carry out determination of the reaction product by BAS 1000 Imaging Analyzer (manufactured by Fuji Photo Film).

[5] = test system: Shewanella alga NS-589; assay: Conversion of sphingomyelin into sphingosylphosphorylcholine by culture of Shewanella alga NS-589; format: cell-based; conditions: synthetic medium, sphingomyelin 0.1%, 30° C. shaking 2 days, TLC
Procedure: Shewanella alga NS-589 was inoculated into 200 ml of a synthetic medium (dipotassium hydrogenphosphate 0.05%, ammonium chloride 0.05%, sphingomyelin 0.1%, sodium taurodeoxycholate 0.1%, sodium chloride 2%, 2,6-O-dimethyl-β-cyclodextrin 0.1%; pH 7.4) and incubated therein at 30° C. under shaking for 2 days.
Then the cells were eliminated by centrifuging the culture medium to obtain the culture supernatant which was then analyzed by thin layer chromatography. […] This culture medium was added to a C18 reversed phase column [Preoperative C18 125A (manufactured by Millipore), packing: 30 g, column diameter: 30 mm, open column]. After desalting and washing with 300 ml of water, the column was eluted with 300 ml of methanol and 300 ml of chloroform/methanol=1/1 (by volume). Then the sphingosylphosphorylcholine was eluted into the methanol fraction. After removing the solvent in the sphingosylphosphorylcholine fraction with a rotary evaporator, the residue was added to a silica gel 60 column (manufactured by Merck) and fractionated with chloroform/methanol/water=5/4/1 (by volume). Further, the solvent in the sphingosylphosphorylcholine fraction thus obtained was removed with a rotary evaporator and the residue was freeze-dried. Thus 47.6 mg of purified sphingosylphosphorylcholine could be obtained.

[6] = test system: SCDase; assay: Substrate specificity (hydrolysis) of purified SCDase from Pseudomonas sp. TK-4; format: biochemical; conditions: 10 nmol sphingolipid, 2 milliunits enzyme, 37° C. 16 h, 20 mM sodium acetate buffer pH 5.0, 0.8% Triton X-100, TLC
Procedure: The enzyme activity of the SCDase is assayed in the following manner. To 10 μl of a substrate solution [50 mM acetate buffer solution (pH 6.0) containing 2 mM of asialo GM1 and 0.6% (w/v) of Triton X-100] is added 10 μl of an enzyme solution. After reacting at 37° C. for 30 minutes, the enzyme reaction is ceased by heating the mixture to 100° C. for 3 minutes. Then the reaction mixture is concentrated to dryness with a centrifugal concentrator. Then the obtained concentrate is dissolved in 10 μl of 50% methanol and placed on a TLC plate (silica gel 60; manufactured by Merck & Co., Inc.). After developing with chloroform/methanol/0.02% aqueous solution of CaCl2 (5/4/1 by volume), the sphingolipid is subjected to color development by the orcinol-sulfuric acid method. […] This spot is determined by using a TLC chromatoscanner (Shimadzu CS-9000, manufactured by Shimadzu Corporation) at a wavelength of 540 nm.
Sphingolipids (10 nmol each) were incubated at 37° C. for 16 h with 2 milliunits of the enzyme in 20 μl of 20 mM sodium acetate buffer, pH 5.0, containing 0.8% Triton X-100. The extent of hydrolysis was examined by TLC and calculated.

CCCCCCCCCCCCC/C=C/[C@@H](O)[C@H](CO)NC(=O)CCCCCCCCCCCCCCCCC [N-stearoylsphingosine (C18:0, d18:1), N-stearoylsphingosine]
Hydrolysis by purified Limulus polyphemus ceramidase (substrate preference) ([1]; purified ceramidase): most efficiently

CCCCCCCCCCCCC/C=C/[C@@H](O)[C@H](CO)NC(=O)CCCCCCCCCCCNc1ccc([N+](=O)[O-])c2nonc12 [NBD ceramide]
Hydrolysis of substrate by Limulus polyphemus serum (ceramidase activity) ([1]; 1 nmol substrate, 10 μl serum, acetate buffer pH 5.0, 0.5% Triton X-100, 18 hours 37° C., TLC under UV): a newly formed NBD aminododecanoic acid was detected | Action of acidic ceramidase in B16 cells on substrate [2]: hardly | Action of alkaline ceramidase in B16 cells on substrate [2]: acts well

Sphingomyelin
Substrate specificity: acting on the substrate, forming the corresponding lysosphingolipid and fatty acid [3]: Acting on | Relative activity (%) [4]: 2.9% | Sphingomyelin converted into sphingosylphosphorylcholine [5]: 80% | Digestion ratio (%) [6]: 28%
